Experimental data as given in US7118895B2, “Process for producing aglycon by using diglycosidase and flavor-improved food containing the aglycon and converting agent to be used in the process” (Amano Enzyme Inc., priority 2000, dated 2006).

Tested on: Crude diglycosidase
Experiment: Examination of pH in the conversion into isoflavone aglycons by diglycosidase using soybean materials
Type: biochemical, Penicillium multicolor IAM7153
Design: Decomposition efficiency of genistin family in soymilk / Decomposition efficiency of genistin family in defatted soybean / Decomposition efficiency of daidzin family in defatted soybean: concentration or dose not given beside the values
Conditions: for Decomposition efficiency of daidzin family in roasted soy flour: 55° C.
Experimental: A substrate solution of 450 μL was prepared by suspending 50 mg of each soybean material (roasted soy flour (manufactured by Fuji Shokuryo K.K.), soymilk (manufactured by Gitoh Shokuhin K.K.), defatted soybean (manufactured by Fuji Seiyu K.K.), concentrated soybean protein (manufactured by Fuji Seiyu K.K.)), and adjusting the pH to 2 to 11 with hydrochloric acid or sodium hydroxide. Each enzyme solution of pH 2–11 wherein diglycosidase activity of crude diglycosidase was adjusted to 1.88 AU/mL was added thereto in an amount of 50 μL and the whole was reacted at 55° C. at the total volume of 500 μL. To the reaction mixture was added 700 μL of ethanol after 0, 1, 3, and 6 hours of the reaction. After stirring and ultrasonication, the mixture was subjected to centrifugal separation at 15,000 rpm and 4° C. for 10 minutes. The supernatant was filtered through a filter and the existence of isoflavone glycosides and aglycon isoflavones contained in the reaction mixture was detected by HLPC (Tables 15 to 26).

[1] = pH4.8, heat treatment of enzyme: no, reaction time 0 h
[2] = pH4.8, heat treatment of enzyme: no, reaction time 1 h
[3] = pH4.8, heat treatment of enzyme: no, reaction time 3 h
[4] = pH4.8, heat treatment of enzyme: no, reaction time 6 h
[5] = pH4.8, heat treatment of enzyme: yes, reaction time 6 h
[6] = pH6.6, heat treatment of enzyme: no, reaction time 0 h
[7] = pH6.6, heat treatment of enzyme: no, reaction time 1 h
[8] = pH6.6, heat treatment of enzyme: no, reaction time 3 h
[9] = pH6.6, heat treatment of enzyme: no, reaction time 6 h
[10] = pH6.6, heat treatment of enzyme: yes, reaction time 6 h

## CC(=O)OC[C@H]1O[C@@H](Oc2ccc3c(=O)c(-c4ccc(O)cc4)coc3c2)[C@H](O)[C@@H](O)[C@@H]1O [acetyldaidzin, 6″-O-acetyldaidzin]
pH1.6, heat treatment of enzyme: no, reaction time 0 h
  Decomposition efficiency of daidzin family in concentrated soybean protein: 44.5%
pH1.6, heat treatment of enzyme: no, reaction time 1 h
  Decomposition efficiency of daidzin family in concentrated soybean protein: 43.7%
pH1.6, heat treatment of enzyme: no, reaction time 3 h
  Decomposition efficiency of daidzin family in concentrated soybean protein: 41.7%
pH1.6, heat treatment of enzyme: no, reaction time 6 h
  Decomposition efficiency of daidzin family in concentrated soybean protein: 39.4%
pH1.6, heat treatment of enzyme: yes, reaction time 6 h
  Decomposition efficiency of daidzin family in concentrated soybean protein: 38.1%
pH2, heat treatment of enzyme no, reaction time 0 h
  Decomposition efficiency of daidzin family in roasted soy flour: 47.4
pH2, heat treatment of enzyme no, reaction time 1 h
  Decomposition efficiency of daidzin family in roasted soy flour: 46.9
pH2, heat treatment of enzyme no, reaction time 3 h
  Decomposition efficiency of daidzin family in roasted soy flour: 45.0
pH2, heat treatment of enzyme no, reaction time 6 h
  Decomposition efficiency of daidzin family in roasted soy flour: 42.4
pH2, heat treatment of enzyme yes, reaction time 6 h
  Decomposition efficiency of daidzin family in roasted soy flour: 42.4
pH2.3, heat treatment of enzyme: no, reaction time 0 h
  Decomposition efficiency of daidzin family in soymilk: not detected
pH2.3, heat treatment of enzyme: no, reaction time 1 h
  Decomposition efficiency of daidzin family in soymilk: not detected
pH2.3, heat treatment of enzyme: no, reaction time 3 h
  Decomposition efficiency of daidzin family in soymilk: not detected
pH2.3, heat treatment of enzyme: no, reaction time 6 h
  Decomposition efficiency of daidzin family in soymilk: not detected
pH2.3, heat treatment of enzyme: yes, reaction time 6 h
  Decomposition efficiency of daidzin family in soymilk: not detected
pH2.6, heat treatment of enzyme: no, reaction time 0 h
  Decomposition efficiency of daidzin family in defatted soybean: not detected
pH2.6, heat treatment of enzyme: no, reaction time 1 h
  Decomposition efficiency of daidzin family in defatted soybean: not detected
pH2.6, heat treatment of enzyme: no, reaction time 3 h
  Decomposition efficiency of daidzin family in defatted soybean: not detected
pH2.6, heat treatment of enzyme: no, reaction time 6 h
  Decomposition efficiency of daidzin family in defatted soybean: not detected
pH2.6, heat treatment of enzyme: yes, reaction time 6 h
  Decomposition efficiency of daidzin family in defatted soybean: not detected
pH2.7, heat treatment of enzyme: no, reaction time 0 h
  Decomposition efficiency of daidzin family in concentrated soybean protein: 44.5%
pH2.7, heat treatment of enzyme: no, reaction time 1 h
  Decomposition efficiency of daidzin family in concentrated soybean protein: 46.4%
pH2.7, heat treatment of enzyme: no, reaction time 3 h
  Decomposition efficiency of daidzin family in concentrated soybean protein: 46.0%
pH2.7, heat treatment of enzyme: no, reaction time 6 h
  Decomposition efficiency of daidzin family in concentrated soybean protein: 45.8%
pH2.7, heat treatment of enzyme: yes, reaction time 6 h
  Decomposition efficiency of daidzin family in concentrated soybean protein: 43.9%
pH3, heat treatment of enzyme no, reaction time 0 h
  Decomposition efficiency of daidzin family in roasted soy flour: 47.4
pH3, heat treatment of enzyme no, reaction time 1 h
  Decomposition efficiency of daidzin family in roasted soy flour: 46.0
pH3, heat treatment of enzyme no, reaction time 3 h
  Decomposition efficiency of daidzin family in roasted soy flour: 39.6
pH3, heat treatment of enzyme no, reaction time 6 h
  Decomposition efficiency of daidzin family in roasted soy flour: 40.7
pH3, heat treatment of enzyme yes, reaction time 6 h
  Decomposition efficiency of daidzin family in roasted soy flour: 47.4
pH3.4, heat treatment of enzyme: no, reaction time 0 h
  Decomposition efficiency of daidzin family in defatted soybean: not detected
pH3.4, heat treatment of enzyme: no, reaction time 1 h
  Decomposition efficiency of daidzin family in defatted soybean: not detected
pH3.4, heat treatment of enzyme: no, reaction time 3 h
  Decomposition efficiency of daidzin family in defatted soybean: not detected
pH3.4, heat treatment of enzyme: no, reaction time 6 h
  Decomposition efficiency of daidzin family in defatted soybean: not detected
pH3.4, heat treatment of enzyme: yes, reaction time 6 h
  Decomposition efficiency of daidzin family in defatted soybean: not detected
pH3.5, heat treatment of enzyme: no, reaction time 0 h
  Decomposition efficiency of daidzin family in soymilk: not detected
pH3.5, heat treatment of enzyme: no, reaction time 1 h
  Decomposition efficiency of daidzin family in soymilk: not detected
pH3.5, heat treatment of enzyme: no, reaction time 3 h
  Decomposition efficiency of daidzin family in soymilk: not detected
pH3.5, heat treatment of enzyme: no, reaction time 6 h
  Decomposition efficiency of daidzin family in soymilk: not detected
pH3.5, heat treatment of enzyme: yes, reaction time 6 h
  Decomposition efficiency of daidzin family in soymilk: not detected
pH3.7, heat treatment of enzyme: no, reaction time 0 h
  Decomposition efficiency of daidzin family in concentrated soybean protein: 44.6%
pH3.7, heat treatment of enzyme: no, reaction time 1 h
  Decomposition efficiency of daidzin family in concentrated soybean protein: 41.6%
pH3.7, heat treatment of enzyme: no, reaction time 3 h
  Decomposition efficiency of daidzin family in concentrated soybean protein: 33.0%
pH3.7, heat treatment of enzyme: no, reaction time 6 h
  Decomposition efficiency of daidzin family in concentrated soybean protein: 25.2%
pH3.7, heat treatment of enzyme: yes, reaction time 6 h
  Decomposition efficiency of daidzin family in concentrated soybean protein: 44.4%
pH4, heat treatment of enzyme no, reaction time 0 h
  Decomposition efficiency of daidzin family in roasted soy flour: 47.7
pH4, heat treatment of enzyme no, reaction time 1 h
  Decomposition efficiency of daidzin family in roasted soy flour: 34.4
pH4, heat treatment of enzyme no, reaction time 3 h
  Decomposition efficiency of daidzin family in roasted soy flour: 20.5
pH4, heat treatment of enzyme no, reaction time 6 h
  Decomposition efficiency of daidzin family in roasted soy flour: 11.1
pH4, heat treatment of enzyme yes, reaction time 6 h
  Decomposition efficiency of daidzin family in roasted soy flour: 47.9
[1]
  Decomposition efficiency of daidzin family in defatted soybean: not detected
  Decomposition efficiency of daidzin family in soymilk: not detected
[2]
  Decomposition efficiency of daidzin family in defatted soybean: not detected
  Decomposition efficiency of daidzin family in soymilk: not detected
[3]
  Decomposition efficiency of daidzin family in defatted soybean: not detected
  Decomposition efficiency of daidzin family in soymilk: not detected
[4]
  Decomposition efficiency of daidzin family in defatted soybean: not detected
  Decomposition efficiency of daidzin family in soymilk: not detected
[5]
  Decomposition efficiency of daidzin family in defatted soybean: not detected
  Decomposition efficiency of daidzin family in soymilk: not detected
pH5, heat treatment of enzyme no, reaction time 0 h
  Decomposition efficiency of daidzin family in roasted soy flour: 47.7
pH5, heat treatment of enzyme no, reaction time 1 h
  Decomposition efficiency of daidzin family in roasted soy flour: 38.5
pH5, heat treatment of enzyme no, reaction time 3 h
  Decomposition efficiency of daidzin family in roasted soy flour: 24.7
pH5, heat treatment of enzyme no, reaction time 6 h
  Decomposition efficiency of daidzin family in roasted soy flour: 15.2
pH5, heat treatment of enzyme yes, reaction time 6 h
  Decomposition efficiency of daidzin family in roasted soy flour: 45.0
pH5.1, heat treatment of enzyme: no, reaction time 0 h
  Decomposition efficiency of daidzin family in concentrated soybean protein: 44.6%
pH5.1, heat treatment of enzyme: no, reaction time 1 h
  Decomposition efficiency of daidzin family in concentrated soybean protein: 43.4%
pH5.1, heat treatment of enzyme: no, reaction time 3 h
  Decomposition efficiency of daidzin family in concentrated soybean protein: 37.0%
pH5.1, heat treatment of enzyme: no, reaction time 6 h
  Decomposition efficiency of daidzin family in concentrated soybean protein: 31.2%
pH5.1, heat treatment of enzyme: yes, reaction time 6 h
  Decomposition efficiency of daidzin family in concentrated soybean protein: 43.4%
pH5.4, heat treatment of enzyme: no, reaction time 0 h
  Decomposition efficiency of daidzin family in defatted soybean: not detected
pH5.4, heat treatment of enzyme: no, reaction time 1 h
  Decomposition efficiency of daidzin family in defatted soybean: not detected
pH5.4, heat treatment of enzyme: no, reaction time 3 h
  Decomposition efficiency of daidzin family in defatted soybean: not detected
pH5.4, heat treatment of enzyme: no, reaction time 6 h
  Decomposition efficiency of daidzin family in defatted soybean: not detected
pH5.4, heat treatment of enzyme: yes, reaction time 6 h
  Decomposition efficiency of daidzin family in defatted soybean: not detected
pH6.2, heat treatment of enzyme: no, reaction time 0 h
  Decomposition efficiency of daidzin family in soymilk: not detected
pH6.2, heat treatment of enzyme: no, reaction time 1 h
  Decomposition efficiency of daidzin family in soymilk: not detected
pH6.2, heat treatment of enzyme: no, reaction time 3 h
  Decomposition efficiency of daidzin family in soymilk: not detected
pH6.2, heat treatment of enzyme: no, reaction time 6 h
  Decomposition efficiency of daidzin family in soymilk: not detected
pH6.2, heat treatment of enzyme: yes, reaction time 6 h
  Decomposition efficiency of daidzin family in soymilk: not detected
pH6.5, heat treatment of enzyme no, reaction time 0 h
  Decomposition efficiency of daidzin family in roasted soy flour: 48.2
pH6.5, heat treatment of enzyme no, reaction time 1 h
  Decomposition efficiency of daidzin family in roasted soy flour: 45.4
pH6.5, heat treatment of enzyme no, reaction time 3 h
  Decomposition efficiency of daidzin family in roasted soy flour: 39.2
pH6.5, heat treatment of enzyme no, reaction time 6 h
  Decomposition efficiency of daidzin family in roasted soy flour: 34.4
pH6.5, heat treatment of enzyme yes, reaction time 6 h
  Decomposition efficiency of daidzin family in roasted soy flour: 43.4
[6]
  Decomposition efficiency of daidzin family in concentrated soybean protein: 44.8%
  Decomposition efficiency of daidzin family in defatted soybean: not detected
[7]
  Decomposition efficiency of daidzin family in concentrated soybean protein: 43.9%
  Decomposition efficiency of daidzin family in defatted soybean: not detected
[8]
  Decomposition efficiency of daidzin family in concentrated soybean protein: 42.9%
  Decomposition efficiency of daidzin family in defatted soybean: not detected
[9]
  Decomposition efficiency of daidzin family in concentrated soybean protein: 41.2%
  Decomposition efficiency of daidzin family in defatted soybean: not detected
[10]
  Decomposition efficiency of daidzin family in concentrated soybean protein: 41.8%
  Decomposition efficiency of daidzin family in defatted soybean: not detected
pH7.2, heat treatment of enzyme: no, reaction time 0 h
  Decomposition efficiency of daidzin family in soymilk: not detected
pH7.2, heat treatment of enzyme: no, reaction time 1 h
  Decomposition efficiency of daidzin family in soymilk: not detected
pH7.2, heat treatment of enzyme: no, reaction time 3 h
  Decomposition efficiency of daidzin family in soymilk: not detected
pH7.2, heat treatment of enzyme: no, reaction time 6 h
  Decomposition efficiency of daidzin family in soymilk: not detected
pH7.2, heat treatment of enzyme: yes, reaction time 6 h
  Decomposition efficiency of daidzin family in soymilk: not detected
pH7.8, heat treatment of enzyme: no, reaction time 0 h
  Decomposition efficiency of daidzin family in defatted soybean: not detected
pH7.8, heat treatment of enzyme: no, reaction time 1 h
  Decomposition efficiency of daidzin family in defatted soybean: not detected
pH7.8, heat treatment of enzyme: no, reaction time 3 h
  Decomposition efficiency of daidzin family in defatted soybean: not detected
pH7.8, heat treatment of enzyme: no, reaction time 6 h
  Decomposition efficiency of daidzin family in defatted soybean: not detected
pH7.8, heat treatment of enzyme: yes, reaction time 6 h
  Decomposition efficiency of daidzin family in defatted soybean: not detected
pH8.5, heat treatment of enzyme no, reaction time 0 h
  Decomposition efficiency of daidzin family in roasted soy flour: 42.1
pH8.5, heat treatment of enzyme no, reaction time 1 h
  Decomposition efficiency of daidzin family in roasted soy flour: 42.7
pH8.5, heat treatment of enzyme no, reaction time 3 h
  Decomposition efficiency of daidzin family in roasted soy flour: 40.3
pH8.5, heat treatment of enzyme no, reaction time 6 h
  Decomposition efficiency of daidzin family in roasted soy flour: 38.0
pH8.5, heat treatment of enzyme yes, reaction time 6 h
  Decomposition efficiency of daidzin family in roasted soy flour: 37.3
pH8.6, heat treatment of enzyme: no, reaction time 0 h
  Decomposition efficiency of daidzin family in concentrated soybean protein: 40.7%
pH8.6, heat treatment of enzyme: no, reaction time 1 h
  Decomposition efficiency of daidzin family in concentrated soybean protein: 39.2%
pH8.6, heat treatment of enzyme: no, reaction time 3 h
  Decomposition efficiency of daidzin family in concentrated soybean protein: 39.0%
pH8.6, heat treatment of enzyme: no, reaction time 6 h
  Decomposition efficiency of daidzin family in concentrated soybean protein: 38.1%
pH8.6, heat treatment of enzyme: yes, reaction time 6 h
  Decomposition efficiency of daidzin family in concentrated soybean protein: 37.7%
pH11.6, heat treatment of enzyme: no, reaction time 0 h
  Decomposition efficiency of daidzin family in soymilk: not detected
pH11.6, heat treatment of enzyme: no, reaction time 1 h
  Decomposition efficiency of daidzin family in soymilk: not detected
pH11.6, heat treatment of enzyme: no, reaction time 3 h
  Decomposition efficiency of daidzin family in soymilk: not detected
pH11.6, heat treatment of enzyme: no, reaction time 6 h
  Decomposition efficiency of daidzin family in soymilk: not detected
pH11.6, heat treatment of enzyme: yes, reaction time 6 h
  Decomposition efficiency of daidzin family in soymilk: not detected
